Patent US3939143A, “1-N-isoserylkanamycins and the production thereof” (Zaidan Hojin Biseibutsu Kagaku Kenkyu Kai, priority 1973, dated 1976)

Tests used:
[1] = system: mice; assay: acute toxicity upon intravenous injection in mice; assay type: in vivo; settings: optically active L- or D-isoseryl form
[2] = system: gram-negative and gram-positive bacteria; assay: antibacterial activity, in words; assay type: cell-based; settings: optically active L- or D-isoseryl form
Description: The minimum inhibitory concentrations (mcg/ml) of 1-N-DL-isoserylkanamycin,1-N-DL-isoserylkanamycin B and 1-N-DL-isoseryl-3',4'-dideoxykanamycin B against various microorganisms were determined according to the serial dilution method using nutrient agar medium at 37°C, the estimation being effected after 18 hours incubation. For comparison purposes, the minimum inhibitory concentrations of kanamycin, kanamycin B and 3',4'-dideoxykanamycin B were also determined in the same manner and under the same conditions as mentioned above.
The antibacterial spectra of 1-N-DL-isoseryl-kanamycin (abbreviated as 1-IS-KM), 1-N-DL-isoseryl-kanamycin B (abbreviated as 1-IS-KMB) and 1-N-DL-isoseryl-3',4'-dideoxykanamycin B (abbreviated as 1-IS-DKB) are shown in the following table together with those of kanamycin (abbreviatedas KM), kanamycin B (abbreviated as KMB) and 3',4'-dideoxykanamycin B (abbreviated as DKB).

[3] = system: phosphotransferase; settings: phosphorylation of the 3'-hydroxyl group; cited from earlier work
[4] = system: kanamycin-resistant strains; settings: phosphotransferase-producing resistant strains; cited from earlier work
[5] = system: Escherichia coli JR66/W677; settings: nucleotidyltransferase-producing resistant strain; cited from earlier work

SMILES	toxicity relative to the DL-form [1]	antibacterial activity relative to the DL-form (racemic form) [2]	susceptibility to / inactivation by phosphotransferase [3]	activity against kanamycin-resistant strains [4]	activity against Escherichia coli JR66/W677 [5]
NC[C@@H](O)C(=O)N[C@@H]1C[C@H](N)[C@@H](O[C@H]2O[C@H](CN)[C@@H](O)[C@H](O)[C@H]2O)[C@H](O)[C@H]1O[C@H]1O[C@H](CO)[C@@H](O)[C@H](N)[C@H]1O [1-N-D-isoserylkanamycin]	the same as those of 1-N-DL-isoserylkanamycin	the same as those of 1-N-DL-isoserylkanamycin			
NC[C@H](O)C(=O)N[C@@H]1C[C@H](N)[C@@H](O[C@H]2O[C@H](CN)[C@@H](O)[C@H](O)[C@H]2O)[C@H](O)[C@H]1O[C@H]1O[C@H](CO)[C@@H](O)[C@H](N)[C@H]1O [1-N-L-isoserylkanamycin]	the same as those of 1-N-DL-isoserylkanamycin	the same as those of 1-N-DL-isoserylkanamycin			
NC[C@H]1O[C@H](O[C@H]2[C@H](O)[C@@H](O[C@H]3O[C@H](CO)[C@@H](O)[C@H](N)[C@H]3O)[C@H](N)C[C@@H]2N)[C@H](O)C[C@@H]1O [3'-Deoxykanamycin]			not susceptible	actually effective	inactive
